Counter-ions that a name gives are not always drawn.
The compounds below were run against T1, human S1P1 (Homo sapiens, UniProt P21453) (assay: GTP[γ-35S] bond assay using the membrane of a human S1P1 expressing cell (S1P1 agonist activity)). Settings: membrane of human S1P1 expressing CHO cell; concentration causing 50% of the maximum GTP[γ-35S] reaction.
T1 construct: expressed in transfected cells; membrane fraction used
Format: biochemical
Procedure: 1) Evaluation of a Receptor Agonist Activity by a GTP[γ-^35S] Bond Assay Using the Membrane of a Human S1P1 Expressing Cell
The in vitro S1P1 agonist activity of the compound of the present invention was evaluated by the increase in the functional bonding activity into the G-Protein of a GTP[γ-^35S] using the membrane of a human S1P1 expressing cell. A cDNA encoding a human S1P1 was cloned from a human colorectal cDNA library, and introduced to an expression vector pcDNA3.1 to construct a S1P1-pcDNA3.1. Then, by Lipofectamine 2000 (GIBCO), the S1P1-pcDNA3.1 was transfected into a CHO cell, and cultured in a Ham's F-12 culture medium containing 10% fetal bovine serum, 100 U/mL Penicillin, 100 μg/mL Streptomycin, and 1 mg/mL G418 disulfate, to obtain a stable, G418-resistant strain. The cultured human S1P1 expressing cells were isolated in a 1 mM EDTA/2Na-containing PBS, and disrupted under ice-cooling by a homogenizer made of glass in a 1 mM Tris HCl (pH 7.4) buffer solution containing 0.1 mM EDTA and a […]. It was centrifuged at […], and a supernatant was further centrifuged at 4° C. for 60 min at 100,000×g, and suspended in a 10 mM Tris HCl (pH 7.4) buffer solution containing 1 mM EDTA. The obtained membrane (0.13 mg/mL) and […] GTP[γ-^35S] […] The FilterMate was dried at 50° C. for 60 min, and Microscinti-o (Packard) was added thereto for measurement by a liquids scintillation counter for a microplate (Packard, TOP count). For evaluation of the human S1P1 agonist activity of the compound of the present invention and the comparative compound, the percentages with the rate of a maximum reaction to make the GTP[γ-^35S] bonds saturated in the presence of the compound being set at 100%, and the rate of the reaction of the GTP[γ-^35S] bonds in the absence of the compound being set at 0% was used, a non-linear regression curve was plotted, and a concentration to cause an agonist activity operating 50% of the maximum reaction was defined as an EC50 value (nM).

T1 sequence (P21453 whole entry): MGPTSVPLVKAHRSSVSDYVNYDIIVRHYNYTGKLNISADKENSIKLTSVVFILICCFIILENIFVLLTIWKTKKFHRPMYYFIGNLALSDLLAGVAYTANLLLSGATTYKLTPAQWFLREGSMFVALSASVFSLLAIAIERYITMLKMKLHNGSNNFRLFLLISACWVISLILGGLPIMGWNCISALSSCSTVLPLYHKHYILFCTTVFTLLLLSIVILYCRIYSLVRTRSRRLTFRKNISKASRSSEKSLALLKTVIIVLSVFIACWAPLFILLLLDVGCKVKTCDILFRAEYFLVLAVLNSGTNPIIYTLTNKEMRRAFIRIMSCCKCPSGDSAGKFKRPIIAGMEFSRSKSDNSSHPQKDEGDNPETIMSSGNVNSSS

EC50 [nM]	Compound
13	CC(Oc1ccc(-c2nc(-c3ccc4[nH]c(N)nc4c3)no2)cc1C(F)(F)F)C(F)(F)F (centres unmarked) [Example 51]
4	CC(Oc1ccc(-c2nc(-c3ccc4cn[nH]c4c3)no2)cc1C(F)(F)F)C(F)(F)F (centres unmarked) [Example 65]
5.4	NC(=O)Cn1ccc2c(-c3noc(-c4cnc(OC(CF)CF)c(Cl)c4)n3)cccc21 [Example 143]
1.9	CC(Oc1ccc(-c2nc(-c3cccc4c3ccn4CC(N)=O)no2)cc1C#N)C(F)(F)F (centres unmarked) [Example 163]
2.3	CC(Oc1ccc(-c2nc(-c3ccc4nc[nH]c4c3)no2)cc1C#N)C(F)(F)F (centres unmarked) [Example 54]
5.9	NC(=O)Cn1ccc2c(-c3noc(-c4ccc(C5CCCC5)c(C(F)(F)F)c4)n3)cccc21 [Example 81]
3.8	CC(Oc1ccc(-c2nc(-c3cccc4nccn34)no2)cc1C(F)(F)F)C(F)(F)F (centres unmarked) [Example 59]
12	FC(F)(F)c1cc(-c2nc(-c3ccc4nc[nH]c4c3)no2)ccc1Oc1ccccc1 [Example 121]
1.8	NC(=O)Cn1ccc2c(-c3noc(-c4ccc(OC(CF)CF)c(C(F)(F)F)c4)n3)cccc21 [Example 158]
4.6	C[C@@H](Oc1ccc(-c2nc(-c3ccc4[nH]cnc4c3)no2)cc1C(F)(F)F)C(F)(F)F [Example 120]
5.4	CC(C)Oc1ccc(-c2nc(-c3cccc4c3ccn4CC(N)=O)no2)cc1Cl [Example 8]
7.6	CC(Oc1ccc(-c2nc(-c3cccc4c3CCN4C)no2)cc1C(F)(F)F)C(F)(F)F (centres unmarked) [Example 152]
6.8	Cc1cc(-c2nc(-c3cccc4c3ccn4CC(=O)NCCO)no2)ccc1O[C@@H](C)C(F)(F)F [Example 193]
6.5	CC(Oc1ccc(-c2nc(-c3ccc4[nH]cnc4c3)no2)cc1C(F)(F)F)C(F)(F)F (centres unmarked) [Example 48]
2.8	CC(Oc1ccc(-c2nc(-c3cccc4c3ccn4CC(N)=O)no2)cc1Cl)C(F)(F)F (centres unmarked) [Example 164]
6.2	FC(F)COc1ccc(-c2nc(-c3ccc4[nH]cnc4c3)no2)cc1C(F)(F)F [Example 110]
3.2	Cc1cc(-c2nc(-c3cccc4c3ccn4CC(N)=O)no2)ccc1O[C@@H](C)C(F)(F)F [Example 147]
1.2	NC(=O)Cn1ccc2c(-c3noc(-c4ccc(OC(CF)CF)c(Cl)c4)n3)cccc21 [Example 6, 2-[4-(5-{3-chloro-4-[2-fluoro-1-(fluoromethyl)ethoxy]phenyl}-1,2,4-oxadiazol-3-yl)-1H-indol-1-yl]acetamide]
4.2	COCC(=O)n1ccc2c(-c3noc(-c4ccc(OC(C)C(F)(F)F)c(C(F)(F)F)c4)n3)cccc21 (centres unmarked) [Example 182]
2.1	CC(=O)N1CCc2c(-c3noc(-c4ccc(OC(C)C(F)(F)F)c(C(F)(F)F)c4)n3)cccc21 (centres unmarked) [Example 15, 1-acetyl-4-{5-[3-(trifluoromethyl)-4-(2,2,2-trifluoro-1-methylethoxy)phenyl]-1,2,4-oxadiazol-3-yl}indoline]
4.7	CC(Oc1ccc(-c2nc(-c3cccc4c3CCN4)no2)cc1C(F)(F)F)C(F)(F)F (centres unmarked) [Example 26, 4-{5-[3-(trifluoromethyl)-4-(2,2,2-trifluoro-1-methylethoxy)phenyl]-1,2,4-oxadiazol-3-yl}indoline]

EC50 [nM]	Compound
2.1	CC(Oc1ccc(-c2nc(-c3ccnc4[nH]ccc34)no2)cc1C(F)(F)F)C(F)(F)F (centres unmarked) [Example 60]
4.3	C[C@H](Oc1ccc(-c2nc(-c3ccc4[nH]cnc4c3)no2)cc1C(F)(F)F)C(F)(F)F.Cl [Ex 119]
4.7	CC(Oc1ccc(-c2nc(-c3cccc4c3ccn4CC(N)=O)no2)cc1C(F)(F)F)C(F)(F)F (centres unmarked) [Example 181]
5.7	CC(Oc1ccc(-c2nc(-c3ccc4nc[nH]c4c3)no2)cc1Br)C(F)(F)F (centres unmarked) [Example 64]
5.5	CC(C)Oc1ccc(-c2nc(-c3cccc4c3ccn4CC(N)=O)no2)cc1C(F)(F)F [Example 5, 2-(4-{5-[4-isopropoxy-3-(trifluoromethyl)phenyl]-1,2,4-oxadiazol-3-yl}-1H-indol-1-yl)acetamide]
11	CC(Oc1ccc(-c2nc(-c3cccc4c3ccn4C)no2)cc1C(F)(F)F)C(F)(F)F (centres unmarked) [Example 151]
6.8	CC(Oc1ccc(-c2nc(-c3ccc4[nH]c(CCS(C)(=O)=O)nc4c3)no2)cc1C(F)(F)F)C(F)(F)F (centres unmarked) [Example 23, 2-[2-(methylsulfonyl)ethyl]-5-{5-[3-(trifluoromethyl)-4-(2,2,2-trifluoro-1-methylethoxy)phenyl]-1,2,4-oxadiazol-3-yl}-1H-benzimidazole hydrochloride]
2	C[C@H](Oc1ccc(-c2nc(-c3cccc4c3ccn4CC(=O)NCCO)no2)cc1C(F)(F)F)C(F)(F)F [Example 194]
3.7	CC(Oc1ccc(-c2nc(-c3cccc4[nH]ccc34)no2)cc1C(F)(F)F)C(F)(F)F (centres unmarked) [Example 67]
4.7	C[C@H](Oc1ccc(-c2nc(-c3cccc4c3ccn4CC(N)=O)no2)cc1C(F)(F)F)C(F)(F)F [Example 12, 2-[4-(5-{3-(trifluoromethyl)-4-[(1S)-2,2,2-trifluoro-1-methylethoxy]phenyl}-oxadiazol-3-yl)-1H-indol-1-yl]acetamide]
3.6	C[C@@H](Oc1ccc(-c2nc(-c3ccc4[nH]cnc4c3)no2)cc1Cl)C(F)(F)F [Example 200]
4.3	C[C@H](Oc1ncc(-c2nc(-c3cccc4c3ccn4CC(N)=O)no2)cc1Cl)C(F)(F)F [Example 173]
5.4	Cc1c(-c2noc(-c3ccc(OC(C)C(F)(F)F)c(C(F)(F)F)c3)n2)ccc2[nH]cnc12 (centres unmarked) [Example 37]
3.3	O=C(Cn1ccc2c(-c3noc(-c4ccc(OC(CF)CF)c(Cl)c4)n3)cccc21)NCCO [Example 197]
5.3	CC(C)Oc1ccc(-c2nc(-c3cccc4c3ccn4CC(=O)NCCO)no2)cc1C(F)(F)F [Example 196]
8.7	C=CCOc1ccc(-c2nc(-c3ccc4[nH]cnc4c3)no2)cc1C(F)(F)F [Example 106]
3.7	CC(Oc1ccc(-c2nc(-c3ccc4nc[nH]c4c3)no2)cc1C(F)F)C(F)(F)F (centres unmarked) [Example 87]
5.8	CC(Oc1ccc(-c2nc(-c3ccc4[nH]cnc4c3)no2)cc1Cl)C(F)(F)F (centres unmarked) [Example 53]
5	C[C@H](Oc1ccc(-c2nc(-c3ccc4[nH]cnc4c3)no2)cc1Cl)C(F)(F)F.Cl [Ex 199]
13	Cc1nc2cc(-c3noc(-c4ccc(OC(C)C(F)(F)F)c(C(F)(F)F)c4)n3)ccc2[nH]1 (centres unmarked) [Example 2, 2-methyl-5-{5-[3-(trifluoromethyl)-4-(2,2,2-trifluoro-1-methylethoxy)phenyl]-1,2,4-oxadiazol-3-yl}-1H-benzimidazole hydrochloride]

Each compound was assayed on number of the lymphocytes in peripheral blood (assay: Evaluation of peripheral blood lymphopenia in rat). Settings: Rattus norvegicus, Lymphocyte, po, 24 h, read-out: ED50 value after 24 hours.
Format: in vivo
Procedure: 2) Evaluation of Peripheral Blood Lymphopenia in Rat
The peripheral blood lymphopenia in rat was measured at 24 hours after oral administration in the following manner. Six- to ten-week-old male Lewis rats (Japan Charles river laboratories) were randomly divided into the groups (n=3), and the compound of the present invention was suspended in 0.5% methyl cellulose-containing distilled water, and orally administered with a sonde. At 24 hours after administration, under ether anesthesia, 0.2 ml of blood was collected from ocular fundus. To the blood sample were immediately added EDTA/4K and heparin to prevent clotting, and the number of the lymphocytes in blood was measured with an automatic haematology analyzer (Sysmex Corp.; XT-2000i). For the reduction of the number of the lymphocytes in peripheral blood by the compound of the present invention, the percentage with the number of the lymphocytes in groups administered with 0.5% methyl cellulose-containing distilled water being set at 100%, as performed at the same time was used, and the dose to cause 50% reduction of the number of the lymphocytes in peripheral blood by administration of the compound of the present invention was defined an ED50 value (mg/kg).

Compound	ED50 [mg/kg]
CC(Oc1ccc(-c2nc(-c3cccnc3N)no2)cc1C(F)(F)F)C(F)(F)F (centres unmarked) [Comparative Compound 2]	8.8

Same assay, conditions: Rattus norvegicus, Lymphocyte; male Lewis rats, oral administration, 50% reduction of the number of lymphocytes in peripheral blood at 24 hours after administration; read-out: ED50 value after 24 hours

Compound	ED50 [mg/kg]
CNc1ncccc1-c1noc(-c2ccc(OC(C)C(F)(F)F)c(Cl)c2)n1.Cl (centres unmarked) [Comparative Compound 5]	> 10
CNc1ncccc1-c1noc(-c2ccc(OC(C)C(F)(F)F)c(C(F)(F)F)c2)n1 (centres unmarked) [Comparative Compound 1]	1.4
CNc1ncccc1-c1noc(-c2ccc(O[C@@H](C)C(F)(F)F)c(Cl)c2)n1.Cl [Comparative Compound 4]	> 10
Cc1ccc(Cl)cc1-c1noc(-c2ccc(OC(C)C(F)(F)F)c(C(F)(F)F)c2)n1 (centres unmarked) [Comparative Compound 3]	3.7
C[C@H](Oc1ccc(-c2nc(-c3ccc4[nH]cnc4c3)no2)cc1C(F)(F)F)C(F)(F)F.Cl [Ex 119]	0.071
C[C@H](Oc1ccc(-c2nc(-c3ccc4[nH]cnc4c3)no2)cc1Cl)C(F)(F)F.Cl [Ex 199]	0.26

Same assay, conditions: rat peripheral blood lymphopenia, 24 hours after oral administration

Compound	ED50 value after 24 hours, conclusion in words (persistence)
C[C@H](Oc1ccc(-c2nc(-c3ccc4[nH]cnc4c3)no2)cc1C(F)(F)F)C(F)(F)F.Cl [Ex 119]	high ED50 value even after 24 hours, indicating persistence
C[C@H](Oc1ccc(-c2nc(-c3ccc4[nH]cnc4c3)no2)cc1Cl)C(F)(F)F.Cl [Ex 199]	high ED50 value even after 24 hours, indicating persistence
